Test results from patent publication US6355676B1, “Fumaric acid micro tablets” (Fumapharm AG, priority 1998, dated 2002).
Where a name gives a salt, the structure may show the parent alone.

What was measured:
[1] = test system: human mononuclear cells of the peripheral blood (PBMC); test: Endotoxin-stimulated TNF-α secretion in PBMC; format: cell-based
Source text: (§1) With multiple re-exposure, the endotoxin-induced increase in TNF-α secretion is reduced, i.e. adaptation takes place.

[2] = test system: isolated monocytes; test: Endotoxin-stimulated TNF-α secretion in isolated monocytes; format: cell-based, human; settings: initial exposure
Source text: as §1

For `COC(=O)/C=C/C(=O)O` [methyl hydrogen fumarate], the “endotoxin-stimulating TNF-α secretion” value ([1]; initial exposure, PBMC) was “initially increases”, the “endotoxin-induced increase in TNF-α secretion” value ([1]; multiple re-exposure, cell type not restated) was “reduced” and the “endotoxin-stimulating TNF-α secretion” value [2] was “initially increases”.
